# Laboratory results published in paper PMC8524858, “Dual inhibition of αvβ6 and αvβ1 reduces fibrogenesis in lung tissue explants from patients with IPF” (Respiratory Research, 2021).
# Key:
# other αv integrins = experiment: Human integrin ligand-binding assays, selectivity over the panel
# Protocol: Integrin ligand-binding assays were performed similar to that previously described.
# Microplates were coated with recombinant human integrins dissolved in PBS (2 µg/ml, overnight at room temperature). Following removal of the coating solution, plates were washed with PBS. Plates were blocked with 200 µL/well of blocking buffer (2% bovine serum albumin [BSA] in PBS) at 37 °C for 1 h. Serial dilutions of test compounds and 2 µg/ml of recombinant ligands were added: fibronectin (R&D Systems #1918-Fn) for integrin αvβ1, LAP (Sino Biological #10804-H08H1; Beijing, China) for integrins αvβ6 and αvβ8, or biotin-tagged vitronectin (Molecular Innovations, Inc. #HVNUBIO) for integrins αvβ3 and αvβ5 in binding/wash buffer (50 mM Tris-HCl, pH 7.5; 0.1% BSA, NaCl 150 mM; 0.02% Tween-20; 1 mM CaCl2; 1 mM MnCl2; 1 mM MgCl2). Plates were incubated for 2 h at 25 °C, washed, and incubated for 1 h with biotin-labeled anti-fibronectin or anti-LAP antibodies (for αvβ1 or αvβ6/αvβ8, respectively). After washing, bound antibody was incubated with peroxidase-conjugated streptavidin (Thermo Fisher #21134; 1:2000 dilution) for 30 minutes (min) at room temperature. Following an additional washing step, 100 μL TMB substrate (BD Biosciences #555214; San Jose, CA, USA) was added and integrin binding was quantified by measuring absorbance at 450 nm by a Tecan Spark 10M plate reader (Tecan; Männedorf, Switzerland).
# [1] = system: αvβ1-induced TGF-β activation; experiment: TGF-β co-culture assay, CHO-αv cells with MLEC luciferase reporter cells; assay type: cell-based, human; conditions: integrin αvβ1
# Protocol: SW-β6 cells and MLECs or CHO-αv cells and MLECs were cultured in 96-well plates with test compounds or antibodies for 20 h at 37 °C in a 5% CO2 incubator. […] Measurement of MLEC luciferase production resulting from αvβ6- or αvβ1-mediated TGF-β activation was performed using the Bright-Glo Luciferase Assay System (Promega; Madison, WI, USA) according to manufacturer’s instruction. Luminescence was quantified by a Tecan Spark 10M plate reader. IC50 curves were generated using Dotmatics software suite with five-parameter logistic curve fitting. Geometric mean IC50 was calculated for each compound from multiple independent analyses.
# [2] = system: bleomycin-challenged C57BL/6 mice; experiment: In vivo bleomycin mouse model of pulmonary fibrosis; conditions: Day 7 to Day 21 after bleomycin
# Protocol: C57BL/6 mice (Charles River; Hollister, CA, USA) were administered 3 units/kg bleomycin (Teva; Toronto, ON, Canada) or vehicle (water) via oropharyngeal aspiration. Lung tissue and bronchioalveolar lavage (BAL) cells were collected after 14 or 21 days to evaluate Smad phosphorylation and collagen deposition.
# OHP levels and fractional synthesis rates were determined similar to that previously described.
# Formalin-fixed, paraffin-embedded mouse lung tissue sections underwent SHG imaging to characterize the quantity and quality of fibrillar collagen deposition using methods similar to that previously described.
# For pSmad3 and total Smad3 quantitation, lung tissues or bronchoalveolar lavage (BAL) cells were lysed in RIPA buffer with protease inhibitor cocktail (Thermo Fisher; #78442). Total protein concentration was normalized across lysates following quantitation by bicinchoninic acid protein assay (Thermo Fisher; #23225). MSD GOLD 96 Small Spot Streptavidin plates were rinsed with PBST, followed by incubation with 1 µg/ml of biotinylated anti-Smad2/3 antibody under agitation for 1 h. Following a second rinse, a 50:50 mix of unknown sample and PBST was added to duplicate wells. Following a 1 h incubation and another rinse, 1 µg/ml of sulfo-tag-labeled anti-pSmad3 or anti-Smad3 antibody was added and incubated for 1 h under agitation. After a final rinse, 1x read buffer was added and the plate was read using an MSD sector imager instrument (SECTOR S 600). pSmad3/Smad3 signal ratios were compared across time points to calculate fold changes.
# Male, 8-week-old C57BL/6 mice (Charles River; Hollister, CA, USA) were administered 3 U/kg bleomycin (Teva) or vehicle (water) via oropharyngeal aspiration while under anesthesia (ketamine/xylazine). […] Total lung weights were recorded, and right lobes were snap-frozen and stored at -80 °C. […]
# OHP levels in mouse lung tissue were determined similar to that previously described (E15) using the QuickZyme hydroxyproline assay kit (QuickZyme Biosciences; Leiden, Netherlands). […] Hydrolysate was adjusted to 4 M HCl and analyzed for OHP concentrations in a 96-well format, according to manufacturer’s instruction. Absorbance was read at 570 nm with an Infinite M200 PRO microtiter plate reader (Tecan; Crailsheim, Germany) and total lung OHP levels calculated from OHP concentrations (µg OHP/mg tissue) by normalizing to total lung weight. […]
# Formalin-fixed paraffin embedded sections prepared from mouse lung tissue underwent SHG imaging to characterize both the quantity and quality of fibrillar collagen deposition using methods similar to that previously described (E16). […]
smiles,measurement,setting,value
COCCN(CCCCc1ccc2c(n1)NCCC2)CC[C@H](Nc1ncnc2ccccc12)C(=O)O [PLN-74809],selectivity over other αv integrins,other αv integrins,≥ 445 fold
same,Fold selectivity (vs αvβ6),[1]; TGF-β activation,0.6×
same,IC50,[1],19.2 nM
same,Smad3 phosphorylation in lung tissue,"[2]; oral 100, 250, 500 mg/kg BID",dose-dependently blocked
same,interstitial fibrillar collagen deposition (SHG imaging),"[2]; oral 100, 250, 500 mg/kg BID, vs vehicle","dose-dependent, significant reduction"
same,total pulmonary hydroxyproline levels,"[2]; oral 100-500 mg/kg BID, vs vehicle (Fig. S3A)",dose-dependently reduced
same,hydroxyproline deposition rate (2H incorporation),"[2]; oral 100-500 mg/kg BID, vs vehicle (Fig. S3B)",dose-dependently reduced
